Where two headings read alike, the source gives them in different places.

We go through three compounds from US12275684B2, “Methods for making and using endoxifen” (Atossa Therapeutics, Inc., priority 2017, dated 2025).

For series [1] the following is noted: cited from earlier work; for predicted t90 for 10% conversion to (E)-endoxifen: solid state.
The nature of series [2]: Placebo controlled, dose escalation pharmacokinetic study of oral (Z)-Endoxifen capsules (serum endoxifen; incl. accumulation ratios and dose linearity). The class given is in vivo, human. From the text:
An objective of the study was to assess the safety and tolerability of oral (Z)-Endoxifen when administered […] orally as a capsule to healthy female volunteers. A secondary objective was to assess the pharmacokinetics of multiple doses of oral (Z)-Endoxifen in the subjects.
Generally, healthy female volunteers aged ≥18 years and ≤65 years were enrolled. 24 participants were enrolled in 3 cohorts and will be administered study drug orally. Three dose levels of orally administered (Z)-Endoxifen were investigated in 3 cohorts. In each cohort participants were randomized to receive an oral (Z)-Endoxifen or placebo in a blinded fashion. Enteric-resistant capsules used in the study were designed as delayed release capsules to resist rupture for at least 30 minutes, but typically, for about 2 hours, under gastric conditions and then open fully in intestinal fluid (DRCaps; Capsugel, a Lonza Company, USA). Enteric-resistant (Swedish Orange size Zero (0); Capsugel, USA) DRCaps capsules manually filled with 1, 2 or 4 mg of (Z)-endoxifen neat in compliance with GMP requirements were used. Placebo capsules contained microcrystalline cellulose an inert common capsule and tablet excipient.
Each cohort enrolled 8 participants, with 6 participants receiving (Z)-Endoxifen 1 mg capsules orally at 1 mg (Cohort 1), 2 mg (Cohort 2) or 4 mg (Cohort 3) doses and 2 participants receiving matching placebo capsules. In Cohort 1 (Dose Level=1 mg) two participants (sentinels) were dosed 24 hours prior to the remaining participants. One sentinel was dosed with (Z)-Endoxifen and the other with placebo. The remaining six participants in Cohort 1 were dosed as no safety concerns were identified in the sentinel participants. The non-sentinel participants in Cohort 1 were admitted to the clinical research facility at least one day later than the sentinels. There were no sentinels in Cohorts 2 and 3.
Participant engagement in this study was for a period of 56 days. These included a 28 day screening period, and a 7 day post treatment period for Pharmacokinetic (PK) sampling. There were two confinement periods, one at the beginning and one at the end of the dosing periods. Participants were confined to the clinical facility on Days-1 through to Day 2 and Days 21 and 22. If participants were to experience any clinically significant adverse events during the study, they would have been required to remain in the clinical facility for further observation at the discretion of the Principal Investigator (PI).
Healthy female volunteers were screened within 28 days prior to commencement of dosing. Participants were admitted to the clinical facility on Day-1 for up to 3 days. The first dose of (Z)-Endoxifen or placebo capsules was administered on Day 1. Following completion of all safety assessments and sampling for PK analyses, participants were discharged from the clinical facility on Day 2. The first dose on Day 1 was followed by a 6-day treatment free period (Days 2-7). Each participant returned to the clinical facility for PK blood draws and safety assessments during the treatment free period on study Days 4 and 6. On Day 8 participants commenced daily administration of (Z)-Endoxifen capsules or placebo capsules for 14 consecutive days (Days 8-21). Participants were supplied with study drug capsules and asked to self administer daily. Participants visited the clinical facility on Days 11, 14 and 17, prior to dose administration, for PK blood draws and safety assessments. On the morning of Day 21 each participant returned to the clinical facility prior to dose administration and were confined to the facility until Day 22 to allow for the collection of PK blood draws and safety assessments. The Day 21 dose was the last administration of study drug. Participants were discharged from the clinical facility on Day 22 and returned for PK blood draws and safety assessments on study Days 24, 26, and 28. […]

For series [3] the following is noted: cited from earlier work.

For `CC/C(=C(\c1ccc(O)cc1)c1ccc(OCCNC)cc1)c1ccccc1.Cl` [(Z)-endoxifen HCl], the t90 in series [1] (aqueous medium, 45° C.) was 9 days. The “predicted t90 for 10% conversion to (E)-endoxifen” value is 53 months in series [1] (25° C./60% RH) and 4.3 months in series [1] (40° C./75% RH).

As to `CC/C(=C(\c1ccc(O)cc1)c1ccc(OCCNC)cc1)c1ccccc1` [Endoxifen], the “dose linearity β Estimate” value was 0.873 in series [2] (AUC24 hr (log), Day 1); 1.008 in series [2] (AUC24 hr (log), Day 21); 0.808 in series [2] (Cmax (log), Day 1); 1.055 in series [2] (Cmax (log), Day 21).

For `CC/C(=C(\c1ccccc1)c1ccc(OCCN(C)C)cc1)c1ccccc1` [tamoxifen, (Z)-2-[4-(1,2-diphenyl-1-butenyl)phenoxy]-N,N-dimethylethanamine], in series [3] (in vivo), the “Terminal elimination half life” value was 120 to 170 h. Also, the peak concentration time result in series [3] (post-dose) was “approximately 5 hours”.
